Results reported in PubChem BioAssay (NCI).
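A five-concentration, 48-hour dose response in 96-well plates underlies each endpoint, interpolated linearly between surrounding concentrations. GI50 is the concentration that inhibits growth by half. TGI marks complete inhibition of growth.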

Columns and labels:
Assay in all cases: inhibition of tumour cell growth, NCI panel, 48 h
[1] = system: RPMI-8226 leukemia
[2] = system: A549 NSCLC
[3] = system: COLO 205 colon
[4] = system: RXF 393 renal
[5] = system: T-47D breast
[6] = system: HCT-116 colon
[7] = system: M14 melanoma
[8] = system: UACC-257 melanoma
[9] = system: PC-3 prostate
[10] = system: TK-10 renal
[11] = system: SF-295 CNS
[12] = system: HT29 colon
[13] = system: MCF7 breast
[14] = system: SK-OV-3 ovarian
[15] = system: HCT-15 colon
[16] = system: DU-145 prostate
[17] = system: BT-549 breast
[18] = system: CAKI-1 renal
[19] = system: HCC-2998 colon
[20] = system: OVCAR-3 ovarian
[21] = system: SF-268 CNS
[22] = system: SR leukemia
[23] = system: MOLT-4 leukemia
[24] = system: NCI-H226 lung
[25] = system: SW-620 colon
[26] = system: ACHN renal
[27] = system: HS 578T breast
[28] = system: NCI-H23 lung
[29] = system: IGROV1 ovarian
[30] = system: OVCAR-4 ovarian
[31] = system: SNB-19 CNS
[32] = system: UACC-62 melanoma
[33] = system: U251 CNS
[34] = system: OVCAR-8 ovarian
[35] = system: CCRF-CEM leukemia
[36] = system: SF-539 CNS
[37] = system: MDA-MB-435
[38] = system: NCI-H460 lung
[39] = system: NCI-H522 lung
[40] = system: UO-31 renal
[41] = system: SK-MEL-28 melanoma
[42] = system: K-562 leukemia
[43] = system: SK-MEL-5 melanoma
[44] = system: MDA-MB-231 breast
[45] = system: SNB-75 CNS
[46] = system: OVCAR-5 ovarian
[47] = system: HOP-62 NSCLC
[48] = system: NCI/ADR-RES ovarian
[49] = system: A498 renal
[50] = system: MALME-3M melanoma
[51] = system: SN12C renal
[52] = system: 786-0 renal
[53] = system: HL-60(TB) leukemia
[54] = system: KM12 colon

COc1ccc(CCc2nc3cc(-c4c(C)noc4C)ccc3n2CCN2CCOCC2)cc1
GI50 [1]: 6.12 µM | TGI [1]: 49.4 µM | GI50 [2]: 45 µM | TGI [2]: > 100 µM | GI50 [3]: 12.7 µM | TGI [3]: > 100 µM | GI50 [4]: 18.7 µM | TGI [4]: 82.4 µM | GI50 [5]: 16.1 µM | TGI [5]: > 100 µM | GI50 [6]: 29.4 µM | TGI [6]: > 100 µM | GI50 [7]: 21.6 µM | TGI [7]: > 100 µM | GI50 [8]: 13.6 µM | TGI [8]: > 100 µM | GI50 [9]: 16.3 µM | TGI [9]: > 100 µM | GI50 [10]: 10.1 µM | TGI [10]: > 100 µM | GI50 [11]: 23 µM | TGI [11]: > 100 µM | GI50 [12]: 13.7 µM | TGI [12]: > 100 µM | GI50 [13]: 4.32 µM | TGI [13]: > 100 µM | GI50 [14]: 26 µM | TGI [14]: > 100 µM | GI50 [15]: 12.5 µM | TGI [15]: > 100 µM | GI50 [16]: 86.2 µM | TGI [16]: > 100 µM | GI50 [17]: 40.5 µM | TGI [17]: > 100 µM | GI50 [18]: 7.94 µM | TGI [18]: > 100 µM | GI50 [19]: 19.9 µM | TGI [19]: 97.5 µM | GI50 [20]: 20.3 µM | TGI [20]: 59.8 µM | GI50 [21]: 41.6 µM | TGI [21]: > 100 µM | GI50 [22]: 7.01 µM | TGI [22]: > 100 µM | GI50 [23]: 34.5 µM | TGI [23]: > 100 µM | GI50 [24]: 31.1 µM | TGI [24]: > 100 µM | GI50 [25]: 58.1 µM | TGI [25]: > 100 µM | GI50 [26]: 25.9 µM | TGI [26]: > 100 µM | GI50 [27]: 9.16 µM | TGI [27]: > 100 µM | GI50 [28]: 45.3 µM | TGI [28]: > 100 µM | GI50 [29]: 22.9 µM | TGI [29]: > 100 µM | GI50 [30]: 5.28 µM | TGI [30]: > 100 µM | GI50 [31]: 35.5 µM | TGI [31]: > 100 µM | GI50 [32]: 11.1 µM | TGI [32]: > 100 µM | GI50 [33]: 38.7 µM | TGI [33]: > 100 µM | GI50 [34]: 35.9 µM | TGI [34]: > 100 µM | GI50 [35]: 26.9 µM | TGI [35]: > 100 µM | GI50 [36]: 34.6 µM | TGI [36]: > 100 µM | GI50 [37]: 14.9 µM | TGI [37]: > 100 µM | GI50 [38]: 65.1 µM | TGI [38]: > 100 µM | GI50 [39]: 12.4 µM | TGI [39]: 69.4 µM | GI50 [40]: 2.49 µM | TGI [40]: > 100 µM | GI50 [41]: 39.5 µM | TGI [41]: > 100 µM | GI50 [42]: 19.9 µM | TGI [42]: > 100 µM | GI50 [43]: 13.4 µM | TGI [43]: 43.8 µM | GI50 [44]: 28.6 µM | TGI [44]: > 100 µM | GI50 [45]: 2.47 µM | TGI [45]: > 100 µM | GI50 [46]: 71.8 µM | TGI [46]: > 100 µM | GI50 [47]: 44.6 µM | TGI [47]: > 100 µM | GI50 [48]: 27.9 µM | TGI [48]: > 100 µM | GI50 [49]: 10.1 µM | TGI [49]: 32.8 µM | GI50 [50]: 6.64 µM | TGI [50]: > 100 µM | GI50 [51]: 34.9 µM | TGI [51]: > 100 µM | GI50 [52]: 24.4 µM | TGI [52]: > 100 µM | GI50 [53]: 10.4 µM | TGI [53]: > 100 µM | GI50 [54]: 17.5 µM | TGI [54]: > 100 µM
